pIC50: −log10 of the molar value. Square brackets hold non-standard residues; d marks the D form. Peptide text beside a SMILES is read from it. * marks the point of attachment. Acryloyl(3-(3-pyridyl),E) = O=C(/C=C/c1cccnc1)*; NMeF = CN[C@@H](Cc1ccccc1)C(=O)O; NMeD = CN[C@@H](CC(=O)O)C(=O)O; Boc = CC(C)(C)OC(=O)*

For 1 compound, IC50 results are on record in BindingDB's records for doi:10.1021/jm00037a006 (Abbott Laboratories, 1994).

This assay concerns the target Gastrin/cholecystokinin type B receptor (Cavia porcellus). Put plainly: In vitro binding for half maximal inhibition of [125I]- cholecystokinin type B receptor in guinea pig cortex.

Regarding `CN(C(=O)[C@H](CCCCNC(=O)/C=C/c1cccnc1)NC(=O)[C@H](Cc1c[nH]c2ccccc12)NC(=O)OC(C)(C)C)[C@@H](CC(=O)O)C(=O)N(C)[C@@H](Cc1ccccc1)C(N)=O` [(S)-3-{[(S)-2-[2-tert-Butoxycarbonylamino-3-(1H-indol-3-yl)-propionylamino]-6-((E)-3-pyridin-3-yl-acryloylamino)-hexanoyl]-methyl-amino}-N-((S)-1-carbamoyl-2-phenyl-ethyl)-N-methyl-succinamic acid] (Boc-WK(Acryloyl(3-(3-pyridyl),E))[NMeD][NMeF]-NH2), the negative logarithm of the IC50 (pIC50) – broadly, −log10 of the IC50, conventionally taken in molar units – is 4.64.
